# Source: PubChem BioAssay (NCI)
#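 1) Cells in 96-well plates. 2) Compound, 48 h, 5 concentrations. 3) Linear interpolation between surrounding doses. 4) Unreached endpoint = highest concentration. At the GI50, growth is halved. TGI is the concentration that stops growth completely.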
# Tests used:
# Test in all cases: NCI tumour cell line growth inhibition, 48 h
# 786-0 renal = tested on: 786-0 renal
# A498 renal = tested on: A498 renal
# A549 NSCLC = tested on: A549 NSCLC
# ACHN renal = tested on: ACHN renal
# BT-549 breast = tested on: BT-549 breast
# CAKI-1 renal = tested on: CAKI-1 renal
# CCRF-CEM leukemia = tested on: CCRF-CEM leukemia
# COLO 205 colon = tested on: COLO 205 colon
# DU-145 prostate = tested on: DU-145 prostate
# EKVX NSCLC = tested on: EKVX NSCLC
# HCC-2998 colon = tested on: HCC-2998 colon
# HCT-116 colon = tested on: HCT-116 colon
# HCT-15 colon = tested on: HCT-15 colon
# HL-60(TB) leukemia = tested on: HL-60(TB) leukemia
# HOP-62 NSCLC = tested on: HOP-62 NSCLC
# HOP-92 NSCLC = tested on: HOP-92 NSCLC
# HS 578T breast = tested on: HS 578T breast
# HT29 colon = tested on: HT29 colon
# IGROV1 ovarian = tested on: IGROV1 ovarian
# K-562 leukemia = tested on: K-562 leukemia
# KM12 colon = tested on: KM12 colon
# M14 melanoma = tested on: M14 melanoma
# MALME-3M melanoma = tested on: MALME-3M melanoma
# MCF7 breast = tested on: MCF7 breast
# MDA-MB-231 breast = tested on: MDA-MB-231 breast
# MDA-MB-435 = tested on: MDA-MB-435
# MOLT-4 leukemia = tested on: MOLT-4 leukemia
# NCI-H226 lung = tested on: NCI-H226 lung
# NCI-H23 lung = tested on: NCI-H23 lung
# NCI-H460 lung = tested on: NCI-H460 lung
# NCI-H522 lung = tested on: NCI-H522 lung
# NCI/ADR-RES ovarian = tested on: NCI/ADR-RES ovarian
# OVCAR-3 ovarian = tested on: OVCAR-3 ovarian
# OVCAR-4 ovarian = tested on: OVCAR-4 ovarian
# OVCAR-5 ovarian = tested on: OVCAR-5 ovarian
# OVCAR-8 ovarian = tested on: OVCAR-8 ovarian
# PC-3 prostate = tested on: PC-3 prostate
# RPMI-8226 leukemia = tested on: RPMI-8226 leukemia
# RXF 393 renal = tested on: RXF 393 renal
# SF-268 CNS = tested on: SF-268 CNS
# SF-295 CNS = tested on: SF-295 CNS
# SF-539 CNS = tested on: SF-539 CNS
# SK-MEL-2 melanoma = tested on: SK-MEL-2 melanoma
# SK-MEL-28 melanoma = tested on: SK-MEL-28 melanoma
# SK-MEL-5 melanoma = tested on: SK-MEL-5 melanoma
# SK-OV-3 ovarian = tested on: SK-OV-3 ovarian
# SN12C renal = tested on: SN12C renal
# SNB-19 CNS = tested on: SNB-19 CNS
# SNB-75 CNS = tested on: SNB-75 CNS
# SR leukemia = tested on: SR leukemia
# SW-620 colon = tested on: SW-620 colon
# T-47D breast = tested on: T-47D breast
# TK-10 renal = tested on: TK-10 renal
# U251 CNS = tested on: U251 CNS
# UACC-257 melanoma = tested on: UACC-257 melanoma
# UACC-62 melanoma = tested on: UACC-62 melanoma
# UO-31 renal = tested on: UO-31 renal
smiles,measurement,setting,value
CN1CCN(Cc2ccc(NC(=O)c3cnc(F)c(C#Cc4cnc(N)c5ncccc45)c3)cc2C(F)(F)F)CC1,GI50,786-0 renal,448 nM
same,TGI,786-0 renal,7860 nM
same,GI50,A498 renal,161 nM
same,TGI,A498 renal,963 nM
same,GI50,A549 NSCLC,321 nM
same,TGI,A549 NSCLC,11900 nM
same,GI50,ACHN renal,119 nM
same,TGI,ACHN renal,5270 nM
same,GI50,BT-549 breast,1110 nM
same,TGI,BT-549 breast,9830 nM
same,GI50,CAKI-1 renal,110 nM
same,TGI,CAKI-1 renal,877 nM
same,GI50,CCRF-CEM leukemia,188 nM
same,TGI,CCRF-CEM leukemia,20800 nM
same,GI50,COLO 205 colon,190 nM
same,TGI,COLO 205 colon,5330 nM
same,GI50,DU-145 prostate,273 nM
same,TGI,DU-145 prostate,7950 nM
same,GI50,EKVX NSCLC,1530 nM
same,TGI,EKVX NSCLC,11300 nM
same,GI50,HCC-2998 colon,963 nM
same,TGI,HCC-2998 colon,9210 nM
same,GI50,HCT-116 colon,150 nM
same,TGI,HCT-116 colon,2990 nM
same,GI50,HCT-15 colon,184 nM
same,TGI,HCT-15 colon,7530 nM
same,GI50,HL-60(TB) leukemia,195 nM
same,TGI,HL-60(TB) leukemia,4410 nM
same,GI50,HOP-62 NSCLC,387 nM
same,TGI,HOP-62 NSCLC,9900 nM
same,GI50,HOP-92 NSCLC,133 nM
same,TGI,HOP-92 NSCLC,1170 nM
same,GI50,HS 578T breast,183 nM
same,TGI,HS 578T breast,2110 nM
same,GI50,HT29 colon,143 nM
same,TGI,HT29 colon,6020 nM
same,GI50,IGROV1 ovarian,139 nM
same,TGI,IGROV1 ovarian,7480 nM
same,GI50,K-562 leukemia,5 nM
same,TGI,K-562 leukemia,675 nM
same,GI50,KM12 colon,6.61 nM
same,TGI,KM12 colon,6050 nM
same,GI50,M14 melanoma,74.6 nM
same,TGI,M14 melanoma,601 nM
same,GI50,MALME-3M melanoma,50.8 nM
same,TGI,MALME-3M melanoma,234 nM
same,GI50,MCF7 breast,309 nM
same,TGI,MCF7 breast,5760 nM
same,GI50,MDA-MB-231 breast,189 nM
same,TGI,MDA-MB-231 breast,1140 nM
same,GI50,MDA-MB-435,141 nM
same,TGI,MDA-MB-435,6090 nM
same,GI50,MOLT-4 leukemia,182 nM
same,TGI,MOLT-4 leukemia,8640 nM
same,GI50,NCI-H226 lung,121 nM
same,TGI,NCI-H226 lung,1940 nM
same,GI50,NCI-H23 lung,485 nM
same,TGI,NCI-H23 lung,9590 nM
same,GI50,NCI-H460 lung,182 nM
same,TGI,NCI-H460 lung,6490 nM
same,GI50,NCI-H522 lung,204 nM
same,TGI,NCI-H522 lung,9960 nM
same,GI50,NCI/ADR-RES ovarian,480 nM
same,TGI,NCI/ADR-RES ovarian,12500 nM
same,GI50,OVCAR-3 ovarian,516 nM
same,TGI,OVCAR-3 ovarian,9580 nM
same,GI50,OVCAR-4 ovarian,195 nM
same,TGI,OVCAR-4 ovarian,8150 nM
same,GI50,OVCAR-5 ovarian,417 nM
same,TGI,OVCAR-5 ovarian,9270 nM
same,GI50,OVCAR-8 ovarian,425 nM
same,TGI,OVCAR-8 ovarian,22200 nM
same,GI50,PC-3 prostate,320 nM
same,TGI,PC-3 prostate,10100 nM
same,GI50,RPMI-8226 leukemia,332 nM
same,TGI,RPMI-8226 leukemia,22700 nM
same,GI50,RXF 393 renal,122 nM
same,TGI,RXF 393 renal,567 nM
same,GI50,SF-268 CNS,324 nM
same,TGI,SF-268 CNS,6350 nM
same,GI50,SF-295 CNS,294 nM
same,TGI,SF-295 CNS,9240 nM
same,GI50,SF-539 CNS,199 nM
same,TGI,SF-539 CNS,2830 nM
same,GI50,SK-MEL-2 melanoma,114 nM
same,TGI,SK-MEL-2 melanoma,451 nM
same,GI50,SK-MEL-28 melanoma,126 nM
same,TGI,SK-MEL-28 melanoma,804 nM
same,GI50,SK-MEL-5 melanoma,735 nM
same,TGI,SK-MEL-5 melanoma,5050 nM
same,GI50,SK-OV-3 ovarian,263 nM
same,TGI,SK-OV-3 ovarian,8700 nM
same,GI50,SN12C renal,161 nM
same,TGI,SN12C renal,5570 nM
same,GI50,SNB-19 CNS,1940 nM
same,TGI,SNB-19 CNS,11900 nM
same,GI50,SNB-75 CNS,643 nM
same,TGI,SNB-75 CNS,6470 nM
same,GI50,SR leukemia,149 nM
same,TGI,SR leukemia,50000 nM
same,GI50,SW-620 colon,226 nM
same,TGI,SW-620 colon,5820 nM
same,GI50,T-47D breast,983 nM
same,TGI,T-47D breast,22300 nM
same,GI50,TK-10 renal,679 nM
same,TGI,TK-10 renal,11600 nM
same,GI50,U251 CNS,252 nM
same,TGI,U251 CNS,13200 nM
same,GI50,UACC-257 melanoma,339 nM
same,TGI,UACC-257 melanoma,6510 nM
same,GI50,UACC-62 melanoma,103 nM
same,TGI,UACC-62 melanoma,586 nM
same,GI50,UO-31 renal,140 nM
same,TGI,UO-31 renal,1160 nM
